Counter-ions that a name gives are not always drawn.
Assays:
[1] = Caco-2 bidirectional assay, effect of piperine on permeability of darunavir; type: in vitro ADME; details: human, Caco-2, pH 7.4
Experimental: (§1) Cells were treated with drugs as follows:
(§2) The sample were analyzed on LCMS-MS.

[2] = Caco-2 bidirectional assay, effect of piperine on permeability of dolutegravir; details: human, Caco-2, pH 7.4
Experimental: as §1
(§3) The samples were analyzed on LCMS-MS.

[3] = in vitro; details: human, Caco-2, pH 7.4
Experimental: Caco-2 cells were cultured in MEM media with 10% serum and seeded at a density of 75000 cells per mL and cultured for 21 days in a 24-well trans-well plate at 37° C., 5% CO2. The monolayer integrity was checked intermittently (Day 0-21) using Trans Epithelial Electric Resistance (TEER).
(§5) 400 μL samples were added to the wells as per the plate setup to the apical side in duplicates with 800 μL HBSS pH 7.4 in the basal wells. Samples were collected at 60, 90 and 120 minutes from the basal side. Mass balance samples at 0 and 120 minutes were collected from the apical side.
For B-A, 800 μL of the respective dilutions were added to the basal side in duplicates with 400 μL HBSS pH 7.4 in the apical wells. Samples were collected at 60, 90 and 120 minutes from the apical side. Mass balance samples at 0 and 120 minutes were collected from the basal side. The sample were analyzed on LCMS-MS.
At the end of the experiment the monolayer integrity was checked using Lucifer yellow, and calculating the % rejection of Lucifer yellow by incubating cells with 100 μg/mL Lucifer.
(§6) For Lucifer yellow, % Lucifer Yellow Passage=[RFU (test)−RFU (blank)/RFU (equilibrium)−RFU (blank)]*100

[4] = Caco-2 bidirectional assay, effect of piperine and tetrahydropiperine on permeability of TDF; details: human, Caco-2, pH 7.4
Experimental: Caco-2 cells were cultured in MEM media with 10% serum and seeded at a density of 75000 cells per mL and cultured for 21 days in a 24-well trans-well plate at 37° C., 5% CO2. The monolayer integrity was checked intermittently (Day 0-21) using Trans Epithelial Electric Resistance (TEER). Cells were treated with drugs as follows:
as §5
For B-A, 800 μL of the respective dilutions were added to the basal side in duplicates with 400 μL HBSS pH 7.4 in the apical wells. Samples were collected at 60, 90 and 120 minutes from the apical side. Mass balance samples at 0 and 120 minutes were collected from the basal side.
The sample were analyzed on LCMS-MS. At the end of the experiment the monolayer integrity was checked using and Lucifer yellow, calculating the % rejection of Lucifer yellow by incubating cells with 100 μg/mL Lucifer.
as §6

[5] = system: Caco-2 cells; assay: Caco-2 bidirectional assay, effect of piperine on permeability of dolutegravir; details: in words
Experimental: as §1, §3

[6] = Caco-2 unidirectional assay (A-B), permeability; details: human, Caco-2
Experimental: as §1
(§4) Stock preparations: 10 mM stocks of all the drugs were prepared in DMSO. The test concentrations were further prepared in HBSS buffer containing 10 mM MES hydrate pH 6.8 as per the plate plan. Also, HBSS buffer with 10 mM HEPES with pH 7.4 was prepared.
as §2

[7] = system: Caco-2 cells; assay: Caco-2 unidirectional assay (A-B), permeability
Experimental: as §1, §4, §2

[8] = biological target: P-gp (Homo sapiens, UniProt P08183); assay: in vitro; type: cell-based; details: pH 7.4, drug alone (Digoxine 10 μM; TAF 100 μM)
Experimental: as §1, §2

[9] = male, Wistar, rat, in vivo, 300 mg
Experimental: The objective of this non-GLP study was to determine the pharmacokinetics of the TDF alone and in combinations with piperine in different groups of male Wistar rats after single dose intravenous administration and oral administration. This study was performed with approval from the Institutional Animal Ethics Committee (IAEC) in accordance with the requirement of Committee for the Purpose of Control and Supervision of Experiments on Animals (CPCSEA), India.
An equal volume (4.72 mL) of each formulation was mixed in separate vials to get 5 mL/kg.
An equal volume (5.61 mL) of each formulation was mixed in separate vials to get 5 mL/kg.
Bioanalysis was performed using fit-for-purpose LC-MS/MS method for the quantification of TDF and PMPA in rat plasma samples. […]
Plasma pharmacokinetic parameters were calculated using the non-compartmental analysis tool of Phoenix software (Version 6.3) and were determined from individual animals in each group. The peak plasma concentration (Cmax), time to achieve peak plasma concentration (Tmax), the area under the plasma concentration-time curve (AUC0-t and AUCinf), AUC Extra (%), elimination half-life (T½), clearance (CL), volume of distribution Vd (L/kg) and Mean residence time (MRT) were calculated from the intravenous group. […]

P-gp, sequence (P08183 whole entry): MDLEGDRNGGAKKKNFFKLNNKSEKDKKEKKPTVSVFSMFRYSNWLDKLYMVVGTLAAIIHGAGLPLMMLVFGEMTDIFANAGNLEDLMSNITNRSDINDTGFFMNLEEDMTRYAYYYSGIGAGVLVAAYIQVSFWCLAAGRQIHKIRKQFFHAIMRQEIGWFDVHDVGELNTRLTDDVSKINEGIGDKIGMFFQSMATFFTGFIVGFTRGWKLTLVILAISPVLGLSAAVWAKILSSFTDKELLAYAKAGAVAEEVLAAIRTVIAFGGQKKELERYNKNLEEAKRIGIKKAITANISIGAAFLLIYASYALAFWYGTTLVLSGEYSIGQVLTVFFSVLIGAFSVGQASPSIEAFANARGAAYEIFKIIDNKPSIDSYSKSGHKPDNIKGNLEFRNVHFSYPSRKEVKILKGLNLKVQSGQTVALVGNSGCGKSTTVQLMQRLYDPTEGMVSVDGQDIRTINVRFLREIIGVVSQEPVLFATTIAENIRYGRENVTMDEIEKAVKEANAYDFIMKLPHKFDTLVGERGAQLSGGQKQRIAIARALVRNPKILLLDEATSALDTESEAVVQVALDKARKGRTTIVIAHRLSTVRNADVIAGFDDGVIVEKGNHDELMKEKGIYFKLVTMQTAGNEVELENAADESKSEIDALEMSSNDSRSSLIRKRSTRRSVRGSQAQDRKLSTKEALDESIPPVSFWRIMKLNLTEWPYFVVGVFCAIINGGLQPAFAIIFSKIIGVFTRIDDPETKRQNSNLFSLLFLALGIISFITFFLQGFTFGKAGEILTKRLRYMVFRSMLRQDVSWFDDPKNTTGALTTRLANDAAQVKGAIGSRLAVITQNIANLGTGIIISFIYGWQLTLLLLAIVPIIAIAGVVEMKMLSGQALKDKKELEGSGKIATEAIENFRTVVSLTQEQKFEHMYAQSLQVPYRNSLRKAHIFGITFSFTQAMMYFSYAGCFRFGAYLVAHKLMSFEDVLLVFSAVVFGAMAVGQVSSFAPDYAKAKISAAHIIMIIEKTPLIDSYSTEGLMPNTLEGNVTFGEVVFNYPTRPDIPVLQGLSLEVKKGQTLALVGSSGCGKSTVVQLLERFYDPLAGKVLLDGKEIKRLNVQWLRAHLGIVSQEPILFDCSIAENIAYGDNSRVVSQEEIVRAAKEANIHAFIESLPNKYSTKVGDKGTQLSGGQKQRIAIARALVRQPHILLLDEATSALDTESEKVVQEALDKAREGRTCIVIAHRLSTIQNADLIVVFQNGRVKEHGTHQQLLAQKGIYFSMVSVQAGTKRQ

SMILES	Papp A→B at 120 min [1]	Papp B→A at 120 min [1]	Papp A→B at 120 min [2]	Papp B→A at 120 min [2]	Papp A→B at 120 min [4]	Papp B→A at 120 min [4]	Papp A→B at 120 min, 50 μM [6]	Papp A→B at 120 min, 100 μM [6]	further results
CC(C)CN(C[C@@H](O)[C@H](Cc1ccccc1)NC(=O)O[C@H]1CO[C@H]2OCC[C@H]21)S(=O)(=O)c1ccc(N)cc1 [Darunavir]	8.83 ×10⁻⁶ cm/s	21.7 ×10⁻⁶ cm/s							
C[C@H]1O[C@@H](O[C@H]2[C@@H](O)C[C@H](O[C@H]3[C@@H](O)C[C@H](O[C@H]4CC[C@@]5(C)[C@H](CC[C@@H]6[C@@H]5C[C@@H](O)[C@]5(C)[C@@H](C7=CC(=O)OC7)CC[C@]65O)C4)O[C@@H]3C)O[C@@H]2C)C[C@H](O)[C@@H]1O [Digoxin]	1.12 ×10⁻⁶ cm/s	14.2 ×10⁻⁶ cm/s	4.5 ×10⁻⁶ cm/s	28.9 ×10⁻⁶ cm/s	0.816 ×10⁻⁶ cm/s	15.5 ×10⁻⁶ cm/s			Papp A→B [3]: 1.94 ×10⁻⁶ cm/s; Papp B→A [3]: 20.5 ×10⁻⁶ cm/s
C[C@@H]1CCO[C@H]2Cn3cc(C(=O)NCc4ccc(F)cc4F)c(=O)c(O)c3C(=O)N12 [Dolutegravir]			40.2 ×10⁻⁶ cm/s	84.3 ×10⁻⁶ cm/s					Permeability classification [5]: high permeable
CC(C)OC(=O)[C@H](C)N[P@](=O)(CO[C@H](C)Cn1cnc2c(N)ncnc21)Oc1ccccc1 [TAF, tenofovir alafenamide fumarate]							5.86 ×10⁻⁶ cm/s	5.39 ×10⁻⁶ cm/s	Permeability classification ([7]; in words): low to moderately permeable; inhibition at 120 min, 100 μM [8]: 0%; Papp A→B at 120 min [3]: 3.45 ×10⁻⁶ cm/s; Papp B→A at 120 min [3]: 17.8 ×10⁻⁶ cm/s
CC(C)OC(=O)OCOP(=O)(CO[C@H](C)Cn1cnc2c(N)ncnc21)OCOC(=O)OC(C)C [TDF, tenofovir disoproxil fumarate]					2.55 ×10⁻⁶ cm/s	15.2 ×10⁻⁶ cm/s	6.58 ×10⁻⁶ cm/s	6.35 ×10⁻⁶ cm/s	Permeability classification ([7]; Caco-2): low to moderately permeable; Bioavailability [9]: 34.39±6.07; Papp A→B at 120 min, 200 μM [4]: 3.77 ×10⁻⁶ cm/s; Papp B→A at 120 min, 200 μM [4]: 14.3 ×10⁻⁶ cm/s; efflux ratio at 120 min, 200 μM [4]: 3.79
